Measured values reported in PMC4291223, “Inhibitors of CLK Protein Kinases Suppress Cell Growth and Induce Apoptosis by Modulating Pre-mRNA Splicing” (PLoS ONE, 2015).

Key:
[1] = system: COLO205 cells; assay: Cell viability assay, COLO205; assay type: cell-based; details: Homo sapiens, COLO 205; COLO205 colorectal cancer
[2] = biological target: T1, CLK1 (Homo sapiens, UniProt P49759); assay: In vitro kinase assay (ADP-Glo), CLK1; assay type: biochemical; details: for IC50: 5 µM ATP; for activity for CLK1 relative to Cpd-1: stronger than Cpd-1
T1 construct: purchased Life Technologies
Experimental: (§1) The ATP concentration for each assay was adjusted to the Km for each kinase. Kinase assays for SRPK1–3 and CLK1 were performed using the ADP-Glo™ assay (Promega, Madison, WI). The kinase buffer contained 25 mM HEPES (pH 7.5), 10 mM magnesium acetate, 1 mM DTT, 0.01% BSA, and 0.01% Tween-20. The reaction mixtures contained 50 ng/mL SRPK1, 100 ng/mL SRPK2 or SRPK3, or 300 ng/mL CLK1 and 3 μM substrate peptide [GRSRSRSRSRSRSRSR] (Thermo Scientific). After incubating the enzyme, peptide, and compounds for 10 min, kinase reactions were initiated by adding ATP to a final concentration of 5 µM, followed by incubation for 30 min (15 min for SRPK1). The kinase reactions were terminated by adding ADP-Glo™ reagent (Promega). ADP was detected using a kinase detection reagent (Promega). The kinase activity of CLK2 was measured using the LANCE® Ultra assay (Perkin-Elmer, Waltham, MA) with ADP-Glo assay buffer. The reaction mixtures contained 100 ng/mL CLK2 and 50 nM ULight™-myelin basic protein (MBP) peptide (Perkin-Elmer). After incubating the enzyme, peptide, and compounds for 5 min, kinase reactions were initiated by adding ATP to a final concentration of 20 μM, followed by incubation for 30 min. The enzyme reactions were terminated by adding 30 mM EDTA, and phosphorylated ULight-MBP peptides were detected using a europium-labeled anti-phospho-MBP antibody diluted with detection buffer (Perkin-Elmer). The plates were read using an EnVision 2102 multilabel reader (Perkin-Elmer). We defined the absorbance of the reaction without enzyme as 100% inhibitory activity and that of the complete reaction mixture as 0% inhibitory activity. The IC50 values were estimated using the “Sigmoidal dose-response (variable slope)” equation in GraphPad Prism 5 software (GraphPad Software, San Diego, CA), with the maximum and minimum of the curve constrained to 100 and 0, respectively.

[3] = system: S6K pre-mRNA splicing in COLO205 cells; assay: S6K pre-mRNA splicing alteration (quantitative RT-PCR), COLO205; assay type: cell-based, human; details: ratio of S6K exons 6–8 to exons 6–7 is 0.1
From the text: (§2) To examine whether inhibition of a particular CLK and/or SRPK contributed to the alternative splicing of S6K pre-mRNA, we used an additional series of compounds with the same scaffold as Cpd-1, Cpd-2, and Cpd-3, but different selectivity. First, we examined the correlation between the enzymatic activity and the level of splicing alterations of S6K pre-mRNA for the individual compounds. We used the exon 7-skipped type of S6K variant to calibrate Rc0.1 values, i.e., the concentrations that induced 10% of the copy number of an alternative isoform compared with that of the canonical isoform. The inhibition of CLK1 and CLK2 activities was correlated with the splicing alteration activities (Rc0.1) (R^2 = 0.3353 and 0.4255, respectively). In contrast, there was no correlation between the activities of SRPKs and the Rc0.1 values (R^2 < 0.0468) (Fig. 3A). Next, we compared the levels of splicing alteration and growth inhibition of the compounds. […] Similar correlations between Rc0.1 and GI50 values were also obtained in seven different cancer cell lines after treatment with Cpd-2 or Cpd-3 (Table 2).
(§3) Total RNA was extracted using an RNeasy Miniprep Kit (Qiagen, Valencia, CA) in accordance with the manufacturer’s instructions. Reverse transcription was performed using a TaqMan Reverse Transcription Reagents Kit (Applied Biosystems, Carlsbad, CA). The PCR conditions were as follows: one cycle of 5 min at 95°C; 35 cycles of 30 s at 94°C, 30 s at 60°C, and 30 s at 72°C; and one cycle of 10 min at 72°C. The PCR products were separated in 2% agarose gels. Real-time PCR was performed using a TaqMan MGB probe (Applied Biosystems), and the amount of FAM fluorescence was measured as a function of the PCR cycle number (CT) using an ABI 7900 Real-time PCR System (Applied Biosystems). The expression level of each mRNA was normalized by that of GAPDH mRNA.

[4] = biological target: T2, SRPK1 (Homo sapiens, UniProt Q96SB4); assay: In vitro kinase assay (ADP-Glo), SRPK1; assay type: biochemical; details: 5 µM ATP
T2 construct: Full-length human recombinant SRPK1 with a FLAG tag linked to the N-terminus (FLAG-hSRPK1); FLAG (N); made in house; host or cells: Sf9 cells (baculovirus, Bac-to-Bac)
Experimental: Full-length human recombinant SRPK1 with a FLAG tag linked to the N-terminus (FLAG-hSRPK1) was prepared using a baculovirus expression system. The recombinant baculovirus used to express FLAG-hSRPK1 was constructed according to the protocol provided with the Bac-to-Bac Baculovirus Expression System (Invitrogen, Carlsbad, CA). Sf9 cells were infected with the amplified recombinant baculovirus, cultured at 27°C for 3 days, harvested, and stored at −80°C. The frozen cells were suspended in lysis buffer [50 mM Tris-HCl pH 7.5, 150 mM NaCl, 10% (w/v) glycerol, 1 mM DTT, and complete protease inhibitor cocktail (Roche, Basel, Switzerland)], sonicated for 1 min, and centrifuged at 15,000 × g for 30 min. The soluble fraction was applied to an anti-FLAG M2 affinity gel (Sigma-Aldrich, St. Louis, MO), and FLAG-hSRPK1 was eluted with elution buffer [50 mM Tris-HCl pH 7.5, 10% (w/v) glycerol, 1 mM DTT, and 0.1 mg/mL FLAG peptide]. FLAG-hSRPK1 was further purified by anion exchange chromatography (MonoQ 5/50 GL; GE Healthcare, Piscataway, NJ) and gel filtration chromatography (HiLoad 26/60 Superdex 200 pg; GE Healthcare). Protein concentration was measured using BCA protein assay reagents (Thermo Scientific, Pittsburgh, PA). CLK1 and CLK2 were purchased from Life Technologies (Carlsbad, CA) and SRPK2 and SRPK3 were obtained from Millipore (Billerica, MA).
The ATP concentration for each assay was adjusted to the Km for each kinase. […] ADP was detected using a kinase detection reagent (Promega). The kinase activity of CLK2 was measured using the LANCE® Ultra assay (Perkin-Elmer, Waltham, MA) with ADP-Glo assay buffer. […] The enzyme reactions were terminated by adding 30 mM EDTA, and phosphorylated ULight-MBP peptides were detected using a europium-labeled anti-phospho-MBP antibody diluted with detection buffer (Perkin-Elmer). The plates were read using an EnVision 2102 multilabel reader (Perkin-Elmer). We defined the absorbance of the reaction without enzyme as 100% inhibitory activity and that of the complete reaction mixture as 0% inhibitory activity. […]

[5] = biological target: T3, SRPK2 (Homo sapiens, UniProt P78362); assay: In vitro kinase assay (ADP-Glo), SRPK2; assay type: biochemical; details: 5 µM ATP
T3 construct: purchased Millipore
Experimental: as §1

[6] = system: S6K pre-mRNA splicing in SW620 cells; assay: S6K pre-mRNA splicing alteration (quantitative RT-PCR), SW620; assay type: cell-based, human; details: ratio of S6K exons 6–8 to exons 6–7 is 0.1
From the text: as §2, §3

[7] = system: S6K pre-mRNA splicing in MDA-MB-468 cells; assay: S6K pre-mRNA splicing alteration (quantitative RT-PCR), MDA-MB-468; assay type: cell-based, human; details: for Rc0.1: MDA-MB-468, concentration at which ratio of copy number of S6K exons 6–8 to S6K exons 6–7 is 0.1; for concentration at which expression level of the alternatively spliced S6K mRNAs was highest: MDA-MB-468, 6 h, S6K exons 6–8 (exon 7 skipped)
From the text: as §2, §3

[8] = system: S6K pre-mRNA splicing in HCT-116 cells; assay: S6K pre-mRNA splicing alteration (quantitative RT-PCR), HCT-116; assay type: cell-based, human; details: ratio of S6K exons 6–8 to exons 6–7 is 0.1
From the text: as §2, §3

T3 sequence (P78362 whole entry): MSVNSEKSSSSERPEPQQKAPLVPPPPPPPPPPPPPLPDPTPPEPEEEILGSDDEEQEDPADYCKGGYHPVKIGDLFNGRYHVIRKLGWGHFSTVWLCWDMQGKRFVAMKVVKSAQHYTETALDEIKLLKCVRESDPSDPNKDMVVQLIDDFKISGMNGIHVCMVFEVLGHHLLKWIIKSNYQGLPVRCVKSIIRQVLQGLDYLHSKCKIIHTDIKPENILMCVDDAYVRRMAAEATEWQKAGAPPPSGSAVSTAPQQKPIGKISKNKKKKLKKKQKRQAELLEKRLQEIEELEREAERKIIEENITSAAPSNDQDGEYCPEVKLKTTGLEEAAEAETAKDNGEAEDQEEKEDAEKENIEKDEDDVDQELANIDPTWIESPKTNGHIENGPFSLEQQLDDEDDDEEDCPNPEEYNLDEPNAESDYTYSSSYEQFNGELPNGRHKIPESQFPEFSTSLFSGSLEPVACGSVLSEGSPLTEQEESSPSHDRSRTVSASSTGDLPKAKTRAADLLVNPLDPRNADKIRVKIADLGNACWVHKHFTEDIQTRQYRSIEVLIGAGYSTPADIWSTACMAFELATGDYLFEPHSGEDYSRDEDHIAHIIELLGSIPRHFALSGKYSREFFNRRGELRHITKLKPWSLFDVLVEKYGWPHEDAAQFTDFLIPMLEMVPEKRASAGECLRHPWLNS
T1 sequence (P49759 whole entry): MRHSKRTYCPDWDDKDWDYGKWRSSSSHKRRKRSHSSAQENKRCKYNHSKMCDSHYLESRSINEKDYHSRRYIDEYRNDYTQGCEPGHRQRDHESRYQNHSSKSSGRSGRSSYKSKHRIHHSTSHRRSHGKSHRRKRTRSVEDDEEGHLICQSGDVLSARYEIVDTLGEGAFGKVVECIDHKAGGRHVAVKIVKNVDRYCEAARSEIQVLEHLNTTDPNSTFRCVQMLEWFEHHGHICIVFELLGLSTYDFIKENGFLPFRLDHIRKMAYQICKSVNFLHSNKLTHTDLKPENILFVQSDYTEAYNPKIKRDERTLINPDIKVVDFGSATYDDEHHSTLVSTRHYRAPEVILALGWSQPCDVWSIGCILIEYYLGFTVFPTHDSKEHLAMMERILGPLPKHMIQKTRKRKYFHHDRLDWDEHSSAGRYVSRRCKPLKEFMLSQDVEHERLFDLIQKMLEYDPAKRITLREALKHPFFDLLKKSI
T2 sequence (Q96SB4 whole entry): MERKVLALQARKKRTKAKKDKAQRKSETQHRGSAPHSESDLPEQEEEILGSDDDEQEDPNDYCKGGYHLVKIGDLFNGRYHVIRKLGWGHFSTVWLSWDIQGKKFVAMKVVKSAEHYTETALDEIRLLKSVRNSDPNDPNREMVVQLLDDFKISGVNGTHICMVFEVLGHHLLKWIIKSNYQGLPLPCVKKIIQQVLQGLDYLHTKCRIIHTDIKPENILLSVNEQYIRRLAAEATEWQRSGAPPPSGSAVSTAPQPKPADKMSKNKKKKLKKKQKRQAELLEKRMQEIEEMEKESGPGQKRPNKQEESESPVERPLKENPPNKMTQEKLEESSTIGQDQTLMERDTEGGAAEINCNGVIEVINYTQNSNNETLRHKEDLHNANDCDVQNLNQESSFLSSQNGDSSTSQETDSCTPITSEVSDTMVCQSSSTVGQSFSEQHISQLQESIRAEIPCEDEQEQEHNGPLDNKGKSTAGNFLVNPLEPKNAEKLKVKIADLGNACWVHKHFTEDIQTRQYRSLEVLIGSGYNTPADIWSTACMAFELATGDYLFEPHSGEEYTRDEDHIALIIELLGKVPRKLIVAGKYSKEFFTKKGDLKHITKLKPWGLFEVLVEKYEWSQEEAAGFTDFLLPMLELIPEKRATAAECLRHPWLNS

| GI50 [1] [nM] | IC50 [2] [nM] | IC50 [4] [nM] | IC50 [5] [nM] | activity for CLK1 relative to Cpd-1 [2] [fold] | Structure (SMILES) | Rc0.1 [3] [µM] | Rc0.1 [6] [µM] | Rc0.1 [7] [µM] | Rc0.1 [8] [µM] | concentration at which expression level of the alternatively spliced S6K mRNAs was highest [7] [µM] |
| --- | --- | --- | --- | --- | --- | --- | --- | --- | --- | --- |
| 27300 | 16 | 61 | 75 | – | CC(C)(CCc1nnn[nH]1)c1ccc(C(=O)Nc2cn3cc(C(F)(F)F)ccc3n2)cc1 [Cpd-1, 4-(2-methyl-4-(1H-tetrazol-5-yl)butan-2-yl)-N-(6-(trifluoromethyl)imidazo[1,2-a]pyridin-2-yl)benzamide] | >10 | >10 | 8.6 | >10 | – |
| 1700 | 1.1 | 200 | 310 | 10 | CC(C)(C)c1ccc(C(=O)Nc2cn3cc(-c4cn[nH]c4)ccc3n2)cn1 [Cpd-2, 6-tert-butyl-N-(6-(1H-pyrazol-4-yl)imidazo[1,2-a]pyridin-2-yl)nicotinamide] | 1.6 | 1.2 | 0.3 | 1.2 | 1.1 to 3.3 |
| 2100 | 1.1 | 130 | 260 | 10 | CC(C)(CO)c1ccc(C(=O)Nc2cn3cc(-c4cn[nH]c4)ccc3n2)cc1 [Cpd-3, 4-(1-hydroxy-2-methylpropan-2-yl)-N-(6-(1H-pyrazol-4-yl)imidazo[1,2-a]pyridin-2-yl)benzamide] | 2.6 | 1.4 | 0.5 | 1.9 | 1.1 to 3.3 |
